Test results as given in patent publication US8258171B2, “pH-sensitive fluorescent probe” (The University of Tokyo, priority 2006, dated 2012).

Experiments:
[1] = Optical characteristics of pH-sensitive fluorescent probes (absorption, emission, fluorescence quantum yield); format: physicochemical; conditions: for Φfl (fluorescence quantum yield): fluorescein (Φfl = 0.85) as reference
Experimental: (§1) Optical characteristics of the compounds of the present invention, 3a (H2NBDP-PH), 3b (DiMeNBDP-PH), and 3c (DiEtNBDP-PH), and a compound not having an anilinic amino group as a pH detecting moiety, 3d (PhBDP-PH), as a control compound were measured.

[2] = pH-dependent change of fluorescence quantum yield and pKa by Henderson-Hasselbach equation; format: physicochemical; conditions: for pKa: Determined with Henderson-Hasselbach equation using fluorescence quantum yield; for pH-dependency of fluorescence intensity (fluorescence quantum yield): FIG. 1
Experimental: as §1

[3] = N-protonated form, pH 1.47 for 3a, pH 2.00 for 3b and 3c
[4] = control compound without anilinic amino group, no form or pH given

Stokes' shift ([1]; N-nonprotonated form, pH 9.00) [nm] | ε ([1]; N-nonprotonated form, pH 9.00) [M⁻¹ cm⁻¹] | λabs, max ([1]; N-nonprotonated form, pH 9.00) [nm] | λem, max ([1]; N-nonprotonated form, pH 9.00) [nm] | Φfl (fluorescence quantum yield) ([1]; N-nonprotonated form, pH 9.00) | Stokes' shift [1, 3] [nm] | ε [1, 3] [M⁻¹ cm⁻¹] | λabs, max [1, 3] [nm] | λem, max [1, 3] [nm] | Φfl (fluorescence quantum yield) [1, 3] | pKa [2] | Stokes' shift [1, 4] [nm] | ε [1, 4] [M⁻¹ cm⁻¹] | λabs, max [1, 4] [nm] | λem, max [1, 4] [nm] | Φfl (fluorescence quantum yield) [1, 4] | Structure (SMILES) | pH-dependency of fluorescence intensity (fluorescence quantum yield) [2]
17 | 71100 | 519 | 536 | 0.002 | 13 | 72100 | 520 | 533 | 0.55 | 3.8 |  |  |  |  |  | CC1=C(CCC(=O)O)C(C)=[N+]2C1=C(c1ccc(N)cc1)c1c(C)c(CCC(=O)O)c(C)n1[B-]2(F)F [Compound 3a, 1,3,5,7-Tetramethyl-2,6-bis-(2-carboxyethyl)-8-(4-aminophenyl)-4,4-difluoro-4-bora-3a,4a-diaza-s-indacene] | pH-dependency following the Henderson-Hasselbach equation
16 | 62300 | 519 | 535 | 0.002 | 14 | 58900 | 521 | 535 | 0.56 | 4.3 |  |  |  |  |  | CC1=C(CCC(=O)O)C(C)=[N+]2C1=C(c1ccc(N(C)C)cc1)c1c(C)c(CCC(=O)O)c(C)n1[B-]2(F)F [Compound 3b, 1,3,5,7-Tetramethyl-2,6-bis-(2-carboxyethyl)-8-[4-(N,N-dimethylamino)phenyl]-4,4-difluoro-4-bora-3a,4a-diaza-s-indacene] | pH-dependency following the Henderson-Hasselbach equation
17 | 64400 | 519 | 536 | 0.002 | 13 | 64100 | 521 | 534 | 0.56 | 6.0 |  |  |  |  |  | CCN(CC)c1ccc(C2=C3C(C)=C(CCC(=O)O)C(C)=[N+]3[B-](F)(F)n3c(C)c(CCC(=O)O)c(C)c32)cc1 [Compound 3c, 1,3,5,7-Tetramethyl-2,6-bis-(2-carboxyethyl)-8-[4-(N,N-diethylamino)phenyl]-4,4-difluoro-4-bora-3a,4a-diaza-s-indacene] | pH-dependency following the Henderson-Hasselbach equation
 |  |  |  |  |  |  |  |  |  |  | 14 | 73200 | 520 | 534 | 0.56 | CC1=C(CCC(=O)O)C(C)=[N+]2C1=C(c1ccccc1)c1c(C)c(CCC(=O)O)c(C)n1[B-]2(F)F [Compound 3d, 1,3,5,7-Tetramethyl-2,6-bis-(2-carboxyethyl)-8-phenyl-4,4-difluoro-4-bora-3a,4a-diaza-s-indacene, reference compound] | 
